Data from US9493468B2, “Antifungal 5,6-dihydro-4H-pyrrolo[1,2-a][1,4]benzo-diazepines and 6H-pyrrolo[1,2-a][1,4]benzodiazepines substituted with heterocyclic derivatives” (Janssen Pharmaceutica NV, priority 2011, dated 2016).

Legend:
Format in all cases: cell-based
Aspergillus fumigatus = test: Antifungal activity in vitro, resazurin growth inhibition: Aspergillus fumigatus (B42928)
Description: (§1) The standard susceptibility screen is performed in 96-well plates (U-bottom, Greiner Bio-One). Serial dilutions (2-fold or 4-fold) of 20 mM compound stock solutions are made in 100% DMSO, followed by an intermediate dilution step in water. These serial dilutions (10 μl) are then spotted onto test-plates that can be stored in the dark at 4° C. for a maximum period of 2 weeks. An adequate broad dose-range is included with 64 μM as the highest in-test concentration. The culture medium RPMI-1640 is supplemented with L-glutamine, 2% glucose and buffered with 3-(N-morpholino)-propanesulfonic acid (MOPS) at pH 7.0±0.1.
(§2) The different fungal species/isolates (Table 3a) are cryopreserved and 1/1000 diluted in medium just prior to use. A standard inoculum of 200 μl containing 10^3 colony-forming unit (cfu) is then added to each well. A positive control (100% growth=fungal culture without antifungal) and a negative control (0% growth ═RPMI-MOPS medium) are included on each plate. Optimal incubation time and temperature are dependent on the fungal species and vary from 24 h for yeasts (37° C.) to one week or more for dermatophytes (27° C.). Inhibition of fungal growth is measured after adding 10 μl of 0.005% (w/v) resazurin (Sigma Aldrich) to each well, based on the principle that living cells convert the non-fluorescent blue resazurin into the pink and fluorescent resorufin, allowing fluorimetric reading (λex 550 nm and λem 590 nm) after an additional incubation period (‘resa’ time mentioned in Table 3a).

[1] = tested on: Trichophyton mentagrophytes; test: Antifungal activity in vitro, resazurin growth inhibition: Trichophyton mentagrophytes (B70554)
Description: as §1, §2

Trichophyton rubrum = test: Antifungal activity in vitro, resazurin growth inhibition: Trichophyton rubrum (B68183)
Description: as §1, §2

Candida parapsilosis = test: Antifungal activity in vitro, resazurin growth inhibition: Candida parapsilosis (B66126)
Description: as §1, §2

Cryptococcus neoformans = test: Antifungal activity in vitro, resazurin growth inhibition: Cryptococcus neoformans (B66663)
Description: as §1, §2

Sporothrix schenkii = test: Antifungal activity in vitro, resazurin growth inhibition: Sporothrix schenkii (B62482)
Description: as §1, §2

Microsporum canis = test: Antifungal activity in vitro, resazurin growth inhibition: Microsporum canis (B68128)
Description: as §1, §2

SMILES | Inf. E: Aspergillus fumigatus B42928, pIC50 (Aspergillus fumigatus) | Inf. G: Trichophyton mentagrophytes B70554, pIC50 [1] | Inf. C: Trichophyton rubrum B68183, pIC50 (Trichophyton rubrum) | Inf. D: Candida parapsilosis B66126, pIC50 (Candida parapsilosis) | Inf. F: Cryptococcus neoformans B66663, pIC50 (Cryptococcus neoformans) | Inf. A: Sporothrix schenkii B62482, pIC50 (Sporothrix schenkii) | Inf. B: Microsporum canis B68128, pIC50 (Microsporum canis)
Cl.c1ccc2c(c1)CNC(c1cc3ccccc3s1)c1cccn1-2 (racemic) [Compound 52] | 5.30 | 5.70 | 6.13 | <4.19 | 6.00 | 5.40 | 5.70
Cl.Clc1cccc2c1CNC(c1cc3ccccc3s1)c1cccn1-2 (racemic) [Compound 53] | 5.40 | 5.70 | 6.10 | <4.19 | 5.70 | 4.92 | 5.70
Cl.Clc1cc(Cl)c2c(c1)-n1cccc1C(c1cc3ccccc3s1)NC2 (racemic) [Compound 56] | <4.19 | 4.48 | 5.71 | <4.19 | <4.19 | <4.19 | <4.19
Cc1ccc(Cl)c2c1-n1cccc1C(c1cc3ccccc3s1)NC2.Cl (racemic) [Compound 57] | <4.19 | <4.19 | 5.10 | <4.19 | <4.19 | <4.19 | 5.24
Cl.Clc1cccc2c1CNC(c1ccc3scc(Cl)c3c1)c1cccn1-2 (racemic) [Compound 58] | 4.48 | 5.09 | 6.29 | <4.19 | 4.58 | <4.19 | 5.08
Cl.Clc1cccc2c1CNC(c1nc3ccccc3s1)c1cccn1-2 (racemic) [Compound 59] | <4.19 | 6.00 | 6.47 | <4.19 | <4.19 | 4.85 | 6.22
CCc1cc(C2=NCc3c(Cl)cccc3-n3cccc32)on1 [Compound 63] | <4.19 | 5.58 | 5.72 | <4.19 | <4.19 | <4.19 | <4.19
CCc1nc(C2=NCc3c(Cl)cccc3-n3cccc32)cs1 [Compound 64] | <4.19 | 5.94 | 5.46 | <4.19 | 4.70 | <4.19 | 5.42
CCc1csc(C2=NCc3c(Cl)cccc3-n3cccc32)n1 [Compound 68] | <4.19 | 4.80 | 5.58 | <4.19 | 4.38 | <4.19 | 4.91
CCc1ccc(C2=NCc3c(Cl)cccc3-n3cccc32)nc1 [Compound 72] | <4.49 | <4.49 | 6.05 | <4.49 | <4.49 | <4.49 | 5.61

More lines, now with the values ahead:

Inf. E: Aspergillus fumigatus B42928, pIC50 (Aspergillus fumigatus) | Inf. G: Trichophyton mentagrophytes B70554, pIC50 [1] | Inf. C: Trichophyton rubrum B68183, pIC50 (Trichophyton rubrum) | Inf. D: Candida parapsilosis B66126, pIC50 (Candida parapsilosis) | Inf. F: Cryptococcus neoformans B66663, pIC50 (Cryptococcus neoformans) | Inf. A: Sporothrix schenkii B62482, pIC50 (Sporothrix schenkii) | Inf. B: Microsporum canis B68128, pIC50 (Microsporum canis) | SMILES
4.30 | 4.47 | 5.70 | <4.19 | <4.19 | <4.19 | 5.18 | CCn1cc(C2=NCc3c(Cl)cccc3-n3cccc32)cn1 [Compound 60]
<4.19 | 4.39 | 4.52 | <4.19 | 4.44 | <4.19 | 4.66 | CCn1cc(C2=NCc3c(Cl)ccc(Cl)c3-n3cccc32)cn1 [Compound 61]
4.70 | 4.86 | 5.22 | 4.23 | 5.15 | 4.51 | 4.59 | CCn1cc(C2=NCc3cc(Cl)cc(Cl)c3-n3cccc32)cn1 [Compound 62]
<4.19 | 5.48 | 5.19 | <4.19 | 5.06 | 4.56 | 4.72 | CCc1nc(C2=NCc3c(Cl)cc(Cl)cc3-n3cccc32)cs1 [Compound 65]
<4.19 | 4.19 | 6.18 | <4.19 | <4.19 | <4.19 | 4.98 | CCc1cnc(C2=NCc3c(Cl)cccc3-n3cccc32)s1 [Compound 66]
<4.19 | <4.19 | 4.71 | <4.19 | <4.19 | <4.19 | 4.50 | CCc1cnc(C2=NCc3c(Cl)cc(Cl)cc3-n3cccc32)s1 [Compound 67]
<4.19 | <4.19 | 5.09 | <4.19 | <4.19 | <4.19 | 4.71 | CCc1csc(C2=NCc3c(Cl)cc(Cl)cc3-n3cccc32)n1 [Compound 69]
<4.19 | 5.78 | 5.55 | <4.19 | 5.00 | 5.42 | 5.83 | CC(C)n1ccc(C2=NCc3cccc(Cl)c3-n3cccc32)cc1=O [Compound 71]
<4.49 | <4.49 | 6.09 | <4.49 | <4.49 | <4.49 | 5.10 | CCc1ccc(C2=NCc3c(Cl)cc(Cl)cc3-n3cccc32)nc1 [Compound 73]
<4.19 | <4.19 | <4.19 | <4.19 | <4.19 | <4.19 | 6.45 | CCc1ccc(C2=NCc3c(ccc(Cl)c3Cl)-n3cccc32)cn1 [Compound 75]
5.42 | 4.47 | 6.18 | 5.07 | <4.19 | <4.19 | 5.41 | Fc1cc(Cl)c2c(c1)-n1cccc1C(c1ccc(Cl)nc1)=NC2 [Compound 78]
5.59 | 5.23 | 5.79 | <4.19 | <4.19 | 5.42 | 5.09 | Fc1cccc2c1CN=C(c1cnc(Cl)c(Cl)c1)c1cccn1-2 [Compound 80]
